Legend:
[1] = tested on: patients with fibromyalgia; assay: Phase 2a study: Fibromyalgia Impact Questionnaire Revised (FIQR); type: in vivo, human; conditions: for FIQR total score improvement from baseline, LS mean difference versus placebo: ANCOVA
Description: (§1) A phase 2a, randomized, double-blind, placebo-controlled, parallel group study was conducted at 24 sites in the United States to assess the analgesic efficacy and safety of the compound of Formula (I) in patients with fibromyalgia. The study consisted of the following: a screening period of up to 42 days, which included a washout period and a 7-day baseline diary run-in; a 57-day double-blind randomized treatment period with site visits at Days 1, 15, 29, and 57; and a 4-week follow-up period consisting of a clinic visit after 2 weeks and a phone call after 4 weeks. The study was carried out in accordance with the Declaration of Helsinki and approved by the relevant Institutional Review Boards. All participants provided written informed consent prior to the initiation of any study procedures.
Male and female patients aged 18 to 80 years were included in the trial if they met the American College of Rheumatology (ACR) 1990 and 2010 fibromyalgia diagnostic criteria at screening (Wolfe et al., 1990; Wolfe et al., 2010b). The core diagnostic criteria for fibromyalgia are defined by the 1990 criteria (Wolfe et al., 1990), and while ACR has published newer criteria, the 1990 version is still commonly utilized in clinical trials. To meet ACR 1990 criteria, patients must have had widespread pain for at least 3 months, defined as the presence of pain on the right and left sides of the body, pain above and below the waist, and pain in the axial skeleton (cervical spine, anterior chest, thoracic spine, or low back) (Wolfe et al., 1990). They must also have had pain in at least 11 of 18 tender point sites on digital palpation performed with an approximate force of 4 kg. To meet the ACR 2010 criteria, patients needed to have a widespread pain index (WPI) score of ≥7 and a symptom severity (SS) scale score ≥5, or a WPI score 3-6 and an SS scale score ≥9 (Wolfe et al., 2010b). Symptoms must have been present at a similar level for at least 3 months and patients must have been free of any other disorder that could have explained the pain.
Eligible patients were randomized 1:1 using Interactive Response Technology to receive oral Compound of Formula (I) 15 mg (three capsules of 5 mg) or matching placebo capsules, each given once daily in the morning, with or without food, for 8 weeks.
Secondary efficacy endpoints included the number of patients achieving a ≥30% or ≥50% reduction in mean daily average pain score assessed by NRS (0 to 10 scale) from baseline to Week 8 and end of treatment (EOT; Day 57); change from baseline to Weeks 2, 4, 8, and EOT in the FIQR function, symptoms, and overall impact subscales; and overall improvement assessed by patient global impression of change (PGIC) (Rampakakis et al., 2015) at Weeks 2, 4, 8, and EOT.
Questionnaires on efficacy, such as FIQR and PGIC, were completed during study visits. The FIQR captures the full spectrum of problems related to fibromyalgia and the responses to therapy, ranging from activities of daily living, overall impact, and symptoms (Bennett et al., 2009). Patients answered each question on an 11-point NRS over a recall period of the last 7 days or the last time the activity was performed (for the physical function domain if the activity was not performed within the 7-day recall period). The PGIC is a self-administered 7-point Likert scale that asks patients to evaluate their fibromyalgia relative to baseline (from “very much improved” to “very much worse”) (Rampakakis et al., 2015).
In FIG. 2, the change from baseline in FIQR total score is depicted. The FIQR total score represents the sum of the three sub scale scores: symptom, function, and overall impact. The symptom sub scale accounts for 50%, the function subscale accounts for 30%, and the overall impact subscale accounts for 20% of the total score. Data from double-blind period are presented as LS mean±standard error; data from follow-up period are presented as mean±standard error. […]

[2] = Nonclinical studies: brain penetration and ADME profile
[3] = tested on: patients with fibromyalgia; assay: Phase 2a study: patient global impression of change (PGIC); type: in vivo, human; conditions: 15 mg once daily
Description: as §1, with “procedures. […]” for “procedures.”
Secondary efficacy endpoints included the number of patients achieving a ≥30% or ≥50% reduction in mean daily average pain score assessed by NRS (0 to 10 scale) from baseline to Week 8 and end of treatment (EOT; Day 57); change from baseline to Weeks 2, 4, 8, and EOT in the FIQR function, symptoms, and overall impact subscales; and overall improvement assessed by patient global impression of change (PGIC) (Rampakakis et al., 2015) at Weeks 2, 4, 8, and EOT. […]

[4] = biological target: Kca3.1 potassium ion channel (Homo sapiens, UniProt O15554); assay: Kca3.1 channel activity (stated mechanism); type: biochemical

## Cc1sc2cc(Cl)ccc2c1-c1ccc(N2CCO[C@H](CNC3CCC3)C2)c(C(=O)O)c1 [Compound of Formula (I)]
[1]; EOT, LOCF imputation, P=0.050
  FIQR total score improvement from baseline, LS mean difference versus placebo: −3.75
[1]; Week 4, P=0.018
  FIQR overall impact subscale, LS mean difference versus placebo: −1.34
[1]; Week 4, P=0.033
  FIQR total score reduction from baseline, LS mean difference versus placebo: −4.14
[1]; Week 4, P=0.039
  FIQR symptoms subscale, LS mean difference versus placebo: −3.73
[1]; Week 4, P=0.103
  FIQR function subscale, LS mean difference versus placebo: −2.97
[1]; baseline to Week 8
  reduction from baseline in FIQR function, symptoms subscale, or overall impact subscale versus placebo: no statistically significant differences
[1]; baseline to Week 8, mBOCF imputation, P=0.036
  FIQR total score improvement from baseline, LS mean difference versus placebo: −4.10
[1]; baseline to Week 8, MMRM analysis, P=0.093
  FIQR total score reduction from baseline, LS mean difference versus placebo: −3.27
[2]; nonclinical
  brain penetration: poor brain penetration
[2]; nonclinical studies
  absorption, distribution, metabolism, and excretion (ADME) profile: acceptable
[3]
  overall patient improvement assessed by PGIC versus placebo: no statistically significant differences
[4]
  action on Kca3.1 potassium ion channel: opener

From patent publication US20220370468A1, “Methods of treating sleep disorders associated with pain” (Astellas Pharma Global Development, Inc., priority 2019, published 2022)
